Measurements reported in publication PMC9120013, “Ribosome inhibition by C9ORF72-ALS/FTD-associated poly-PR and poly-GR proteins revealed by cryo-EM” (Nature Communications, 2022).
Like-named read-outs stand apart in the source and are kept apart here. Ends that are not written are not given here.

Assays:
[1] = test system: ribosomes on endogenous globin mRNAs in RRL; experiment: Polysome profiling of RRL translating endogenous mRNA; type: biochemical, rabbit; conditions: 4 μM PR20, 4 μM GR20, 1 mM GDPCP; 5 min
Description: Polysome profiles were obtained using RRL untreated with nuclease, so that it contained endogenous mRNA. 100 μl reactions containing 50% RRL (Green Hectare) 30 μM hemin (Sigma), 75 mM KCl, 0.5 mM MgCl2, 1 mM ATP, 0.2 mM GTP, 2.1 mg/ml creatine phosphate, 30 μM of L-amino acid mix, 15 mg/ml yeast tRNA, 6 mM BME and, when appropriate, translation inhibitors (4 μM PR20, 4 μM GR20, cycloheximide, 40 μM harringtonine, or 1 mM GDPCP with 1 mM MgCl2) were assembled on ice. To start translation, the reactions were warmed in a heat block at either 30 °C or 37 °C as noted. After 5 min, reactions were terminated by addition of 100 μl of ice-cold Stop Buffer (50 mM Hepes-KOH pH 7.4, 150 mM KOAc, 10 mM Mg(OAc)2, and 200 μg/ml cycloheximide). The stopped reactions were applied to 10–50% sucrose gradients in Gradient Buffer (50 mM Hepes-KOH pH 7.4, 150 mM KOAc, 10 mM Mg(OAc)2, 2 mM DTT, and 100 μg/ml cycloheximide) and spun in an SW-41 rotor (Beckman Coulter) at 197,568xg (avg) for 2 h at 4 °C. Gradients were pumped on a Gradient Station (BioComp Instruments) at a pump rate of 0.29 mm/min and the absorbance at 254 nm was measured by an Econo UV monitor (Biorad) zeroed with 10% sucrose-gradient buffer. The traces were output as CSV files and imported into GraphPad Prism, where the 80S peaks were aligned. Controls were highly reproducible day-to-day. Each experimental condition is shown compared to concurrent, uninhibited control.

nanoluciferase = experiment: Control: nanoluciferase enzyme activity after translation stopped by cycloheximide; type: biochemical; conditions: 1 µM added after translation stopped by CHX; n=8
Description: (§1) The following additional controls indicate that DPR-induced changes in fluorescence were caused by translation inhibition.
(§2) Supplementary Fig. 1. […]
(e) Nanoluciferase mRNA was translated in
the absence of DPRs, translation was stopped by cycloheximide (CHX), then 1 µM PR20
or GR20 were added and luminescence was monitored. n=8 independent experiments;
mean of normalized RLU ± SD. […]

[2] = test system: ribosomes on endogenous beta-globin mRNA in RRL; experiment: Toeprinting of 80S and 4-5-mer polysome fractions on beta-globin mRNA; type: biochemical, rabbit; conditions: for Ratio (START to CDS) / Normalized ratio START/ORF: 80S fraction, primer A, Fig. 2f independent repeat; for Normalized ratio START/ORF: no inhibitor = 1; for normalized ratio START to CDS, MEAN: 4-5-mer, primer B, mean of ten 20 bp windows
Description: Toeprinting analyses were carried out similarly to those in refs. [51],[74], using 80S and polysome (4–5-some) fractions collected from polysome profiles as described in “Polysome Profiles” except that reactions were doubled in size (200 μL), performed at 37 °C, and were stopped with ice-cold 1xAMV Buffer (50 mM Tris-HCl pH 8.3, 50 mM KCl, 5 mM MgCl2) with 200 μg/ml cycloheximide before being separated on at 10–35% sucrose gradient in 1xAMV buffer with 0.5 mM spermidine and 1 mM DTT. 600 μl of each fraction (80S or 4–5-mer) was supplemented with 10 mM DTT. Then 10 U of AMV reverse transcriptase (Promega), 120 nmol dNTPs, and 120 pmol of a 5'[6-carboxyfluorescein (FAM)]-labeled primer (IDT-DNA) were added. Two primers specific to the endogenous beta-globin mRNA in RRL were used in separate reactions: 5′-(FAM)-GGACTCGAAGAACCTCTG (as in ref. [74]) annealed 136 nucleotides downstream of the AUG or 5′-(FAM)-[…] annealed to the end of the 3'-UTR. Primers were extended at 37 °C for 30 min, and then the reaction were extracted in 1:1 phenol:chloroform, supplemented with 1/10 volume of 3 M sodium acetate pH 5.2, and precipitated with 2.5 volumes of 100% ethanol. Pellets were resuspended in 10 μl of deionized formamide (Applied Biosystems) with 1/20 volume of a 35-500 nucleotide orange-dye labeled DNA size standard (MCLab) and loaded onto a 96-well plate. The samples were sent for fragment analysis by capillary electrophoresis to the UMass Chan Medical School Molecular Biology Core Laboratory using an ABI3730XL DNA Fragment Analyzer with capillaries loaded with POP-7 polymer and with an injection voltage of 12.5 kV. Data collection was performed with GeneMapper software (ABI). Data were exported as.fsa files and were analyzed (aligning to ladder and background correction) in GeneMarker 3.0.1 software (SoftGenetics) running in demo mode. Screen captures of traces were taken and traces were integrated using the “Quantification” feature and manually adjusting sliders to include the desired nucleotide range.

[3] = molecular target: translation of nanoluciferase mRNA in rabbit reticulocyte lysates; experiment: Nanoluciferase mRNA translation in rabbit reticulocyte lysate, inhibitor preincubated 5 min before mRNA; type: biochemical; conditions: read-out: IC50 of translation inhibition
From the text: Rabbit reticulocyte lysates (RRL, Promega) were used to investigate the inhibition of translation by DPR proteins. We independently monitored translation of two mRNAs encoding non-homologous proteins of different lengths: nanoluciferase[71] and firefly luciferase. To measure the IC50s of the translational inhibitors cycloheximide (Akros Organics), harringtonine (AbCam), GDPCP (Jena Biosciences), PR20 and GR20, we monitored the translation of nanoluciferase mRNA in nuclease-treated RRL (Promega). […] Next, 10 ng/μl (final concentration) 6xhis-Nanoluciferase mRNA flanked with the 5'- and 3'-UTR from rabbit beta-globin[48] was added and the luminescence reactions were continuously measured by an Infinite m1000 pro microplate reader (Tecan) for 15 min at 30 °C. The 1st derivative of the luminescence reactions was determined in Prism 8 (GraphPad Software, LLC) and the maximum was identified and the mean of three maximums from independent experiments for each inhibitor was taken as the rate. The rates were plotted versus inhibitors concentration, and the plots were fitted in Prism 8 (GraphPad Software, LLC) to a 3-parameter inhibition model (Y = baseline + (max-baseline)/(1 + X/IC50)) to obtain the IC50 values where the baseline was constrained to 0. This procedure was modified to separate translation initiation from translation elongation by changing the time of addition of the inhibitors to ~300 s after mRNA addition when RLUs had reached a value of ~50,000. Here, the maximum of the first derivative was taken in the 2nd or later measurement taken after inhibitor addition.
as §1

[4] = test system: firefly luciferase enzyme; experiment: Control: firefly luciferase enzyme activity in RRL without mRNA; type: biochemical; conditions: 1 µM added after 120 s to 40 nM enzyme in RRL; n=6
From the text: as §1, §2

[5] = 50% RRL, 5-min preincubation at 30 °C before nanoluciferase mRNA, maximal rate vs concentration, n = 3, mean ± SEM

Row | Compound | polysome profile, half-mer peaks [1] | effect on nanoluciferase enzyme activity (nanoluciferase) | site of ribosome accumulation, toe-printing of polysome fractions [2] | Ratio (START to CDS) [2] | Normalized ratio START/ORF [2] | normalized ratio START to CDS, MEAN ([2]; Fig. 2g) | normalized ratio START to CDS, MEAN ([2]; Fig. 2h independent repeat) | IC50 ([3]; 33% RRL) [nM] | IC50 [3, 5] [nM] | effect on firefly luciferase enzyme activity [4]
1 | N=C(N)NCCC[C@H](NC(=O)CNC(=O)[C@H](CCCNC(=N)N)NC(=O)CNC(=O)[C@H](CCCNC(=N)N)NC(=O)CNC(=O)[C@H](CCCNC(=N)N)NC(=O)CNC(=O)[C@H](CCCNC(=N)N)NC(=O)CNC(=O)[C@H](CCCNC(=N)N)NC(=O)CNC(=O)[C@H](CCCNC(=N)N)NC(=O)CNC(=O)[C@H](CCCNC(=N)N)NC(=O)CNC(=O)[C@H](CCCNC(=N)N)NC(=O)CNC(=O)[C@H](CCCNC(=N)N)NC(=O)CNC(=O)[C@H](CCCNC(=N)N)NC(=O)CNC(=O)[C@H](CCCNC(=N)N)NC(=O)CNC(=O)[C@H](CCCNC(=N)N)NC(=O)CNC(=O)[C@H](CCCNC(=N)N)NC(=O)CNC(=O)[C@H](CCCNC(=N)N)NC(=O)CNC(=O)[C@H](CCCNC(=N)N)NC(=O)CNC(=O)[C@H](CCCNC(=N)N)NC(=O)CNC(=O)[C@H](CCCNC(=N)N)NC(=O)CNC(=O)[C@H](CCCNC(=N)N)NC(=O)CNC(=O)[C@H](CCCNC(=N)N)NC(=O)CN)C(=O)O [GR20] | appearance of half-mer peaks | do not affect enzyme activity | accumulate within the open reading frame | 1.504 | 0.5576 | 0.4196 | 0.5964 | 425 | 640 | do not affect enzyme activity
2 | PRPRPRPRPRPRPRPRPRPRPRPRPRPRPRPRPRPRPRPR [PR20] | appearance of half-mer peaks | do not affect enzyme activity | accumulate at the start codon | 5.983 | 2.218 | 2.067 | 3.436 | 325 | 840 | do not affect enzyme activity
